According to ChEMBL document CHEMBL1131993, “Binding affinities of 3-(3-phenylisoxazol-5-yl)methylidene-1-azabicycles to acetylcholine receptors” (Bioorg Med Chem Lett, 1999):

How the values were obtained:
[1] = biological target: T1, Muscarinic acetylcholine receptor M1 (Homo sapiens) (UniProt P11229); assay: Ability to displace [3H]N-methylscopolamine binding to M1 human recombinant muscarinic receptor in CHO cells at concentration 10 uM; assay type: cell-based
T1 sequence (whole entry): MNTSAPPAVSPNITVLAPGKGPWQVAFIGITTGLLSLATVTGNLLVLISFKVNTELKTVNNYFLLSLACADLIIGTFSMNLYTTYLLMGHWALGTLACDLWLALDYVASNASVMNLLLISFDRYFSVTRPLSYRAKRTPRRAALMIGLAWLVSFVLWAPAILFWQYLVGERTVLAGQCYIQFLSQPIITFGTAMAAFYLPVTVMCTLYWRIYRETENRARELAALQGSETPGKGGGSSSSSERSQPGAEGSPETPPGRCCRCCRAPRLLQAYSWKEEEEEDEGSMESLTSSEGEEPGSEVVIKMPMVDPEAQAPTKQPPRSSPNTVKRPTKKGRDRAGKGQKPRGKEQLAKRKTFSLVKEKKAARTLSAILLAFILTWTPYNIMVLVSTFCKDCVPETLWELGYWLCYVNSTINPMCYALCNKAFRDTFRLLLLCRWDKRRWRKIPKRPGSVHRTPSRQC

[2] = biological target: T2, Muscarinic acetylcholine receptor M2 (Homo sapiens) (UniProt P08172); assay: Ability to displace [3H]N-methylscopolamine binding to M2 human recombinant muscarinic receptor in CHO cells at concentration 1 uM; assay type: cell-based
T2 sequence (whole entry): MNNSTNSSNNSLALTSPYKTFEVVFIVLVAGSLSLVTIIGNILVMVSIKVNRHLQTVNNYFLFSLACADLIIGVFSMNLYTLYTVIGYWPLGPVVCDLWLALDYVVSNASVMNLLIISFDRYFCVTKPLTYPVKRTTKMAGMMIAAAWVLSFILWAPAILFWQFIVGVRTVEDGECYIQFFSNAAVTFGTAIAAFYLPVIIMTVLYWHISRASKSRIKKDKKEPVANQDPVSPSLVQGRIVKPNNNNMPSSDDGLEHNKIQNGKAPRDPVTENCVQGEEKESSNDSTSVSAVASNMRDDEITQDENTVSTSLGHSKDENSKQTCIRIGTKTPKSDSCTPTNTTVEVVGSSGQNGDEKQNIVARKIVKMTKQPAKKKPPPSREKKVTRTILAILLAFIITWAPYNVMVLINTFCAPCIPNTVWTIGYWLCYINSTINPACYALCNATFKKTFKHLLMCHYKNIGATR

[3] = biological target: T2, Muscarinic acetylcholine receptor M2 (Homo sapiens); assay: Ability to displace [3H]N-methylscopolamine binding to M2 human recombinant muscarinic receptor in CHO cells at concentration 10 uM; assay type: cell-based
[4] = biological target: Muscarinic acetylcholine receptor M3 (Homo sapiens) (UniProt P20309); assay: Ability to displace [3H]N-methylscopolamine binding to M3 human recombinant muscarinic receptor in CHO cells at concentration 10 uM; assay type: cell-based
Sequence of Muscarinic acetylcholine receptor M3 (Homo sapiens) (P20309 whole entry, looked up): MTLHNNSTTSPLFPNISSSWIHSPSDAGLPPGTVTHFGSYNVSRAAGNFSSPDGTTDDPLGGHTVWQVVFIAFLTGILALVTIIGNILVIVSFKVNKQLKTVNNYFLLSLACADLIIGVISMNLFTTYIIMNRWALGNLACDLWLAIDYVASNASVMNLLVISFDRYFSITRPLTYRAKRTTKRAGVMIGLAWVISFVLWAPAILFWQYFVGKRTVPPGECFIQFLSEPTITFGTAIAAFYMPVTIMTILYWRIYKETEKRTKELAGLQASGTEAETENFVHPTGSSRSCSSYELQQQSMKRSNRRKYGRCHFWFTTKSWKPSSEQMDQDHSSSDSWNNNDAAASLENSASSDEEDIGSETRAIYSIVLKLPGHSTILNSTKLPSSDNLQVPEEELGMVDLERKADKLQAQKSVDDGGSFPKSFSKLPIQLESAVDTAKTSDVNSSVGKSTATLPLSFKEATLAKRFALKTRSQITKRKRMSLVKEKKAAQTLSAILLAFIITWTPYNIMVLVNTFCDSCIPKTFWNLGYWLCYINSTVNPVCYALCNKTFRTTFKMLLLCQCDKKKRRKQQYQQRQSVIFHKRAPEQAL

[5] = biological target: T3, Muscarinic acetylcholine receptor M1 (Homo sapiens, UniProt P11229); assay: The compound was tested for its binding affinity against M1 human recombinant muscarinic receptor in CHO cells.; assay type: cell-based
T3 sequence (P11229 whole entry): T1 sequence (whole entry)

[6] = biological target: T1, Muscarinic acetylcholine receptor M1 (Homo sapiens); assay: Ability to displace [3H]N-methylscopolamine binding to M1 human recombinant muscarinic receptor in CHO cells at concentration 1 uM; assay type: cell-based
[7] = biological target: T4, Neuronal acetylcholine receptor (Rattus norvegicus) (UniProt P04757+P09483+P12389+P12390+P12392+P43144+Q9JLB5+P12391+P43143+P20420+Q05941); assay: Ability to displace [3H]cytisine binding to nicotinic receptor in synaptic membrane fractions from rat cerebral cortices at a concentration of 10 uM.; assay type: cell membranes
[8] = biological target: Muscarinic acetylcholine receptor M3 (Homo sapiens) (UniProt P20309); assay: Ability to displace [3H]N-methylscopolamine binding to M3 human recombinant muscarinic receptor in CHO cells at concentration 1 uM; assay type: cell-based
[9] = biological target: T5, Acetylcholine receptor subunit delta (Torpedo californica) (UniProt P02718); assay: (§1) Ability to displace [3H]cytisine binding to Nicotinic acetylcholine receptor in synaptic membrane fractions from rat cerebral cortices at a concentration of 10 uM.; assay type: cell membranes; conditions: target entry is the homologue from another species
T5 sequence (whole entry): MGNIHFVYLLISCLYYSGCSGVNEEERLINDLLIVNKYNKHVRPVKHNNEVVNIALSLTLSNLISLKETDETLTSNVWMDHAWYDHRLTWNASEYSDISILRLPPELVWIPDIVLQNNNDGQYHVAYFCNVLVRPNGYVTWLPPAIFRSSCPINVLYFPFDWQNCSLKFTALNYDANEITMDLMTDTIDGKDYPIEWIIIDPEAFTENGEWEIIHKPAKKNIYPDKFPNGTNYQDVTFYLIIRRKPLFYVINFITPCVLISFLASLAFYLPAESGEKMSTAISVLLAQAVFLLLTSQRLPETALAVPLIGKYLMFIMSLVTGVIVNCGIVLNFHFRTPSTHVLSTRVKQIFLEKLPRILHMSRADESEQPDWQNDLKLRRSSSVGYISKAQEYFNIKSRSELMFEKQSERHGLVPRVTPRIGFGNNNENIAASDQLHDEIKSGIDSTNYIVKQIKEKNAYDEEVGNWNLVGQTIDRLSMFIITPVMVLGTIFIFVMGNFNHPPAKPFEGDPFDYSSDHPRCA

[10] = biological target: T3, Muscarinic acetylcholine receptor M1; assay: Compound was tested for its binding affinity against M1 human recombinant muscarinic receptor in CHO cells.; assay type: cell-based
[11] = biological target: T6, Neuronal acetylcholine receptor subunit alpha-7 (Rattus norvegicus, UniProt Q05941); assay: Compound was tested for its binding affinity against nicotinic receptor in synaptic membrane fractions from rat cerebral cortices.; assay type: cell membranes
T6 sequence (Q05941 whole entry): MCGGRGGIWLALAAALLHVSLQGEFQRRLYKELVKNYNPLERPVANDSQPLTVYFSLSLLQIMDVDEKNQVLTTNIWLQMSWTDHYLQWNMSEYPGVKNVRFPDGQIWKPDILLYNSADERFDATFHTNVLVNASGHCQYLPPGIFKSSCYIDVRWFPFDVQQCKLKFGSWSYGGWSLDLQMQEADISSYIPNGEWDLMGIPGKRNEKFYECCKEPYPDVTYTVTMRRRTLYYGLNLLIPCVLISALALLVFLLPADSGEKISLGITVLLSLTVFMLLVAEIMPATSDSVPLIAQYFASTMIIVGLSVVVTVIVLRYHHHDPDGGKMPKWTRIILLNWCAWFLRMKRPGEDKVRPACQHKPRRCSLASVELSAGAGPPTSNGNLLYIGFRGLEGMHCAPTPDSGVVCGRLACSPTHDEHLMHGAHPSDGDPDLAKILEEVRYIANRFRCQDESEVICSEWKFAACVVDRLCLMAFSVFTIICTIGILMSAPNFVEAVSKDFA

[12] = biological target: T6, Neuronal acetylcholine receptor subunit alpha-7; assay: The compound was tested for its binding affinity against nicotinic receptor in synaptic membrane fractions from rat cerebral cortices.; assay type: cell membranes
[13] = biological target: T4, Neuronal acetylcholine receptor (Rattus norvegicus); assay: as §1; assay type: cell membranes

COc1ccc(COc2ccc(-c3cc(/C=C4/CN5CCC4CC5)on3)cc2)cc1
inhibition [1]: 93%
inhibition [2]: 26%
inhibition [3]: 83%
inhibition [4]: 52%
IC50 [5]: 250 nM
inhibition [6]: 89%
inhibition [7]: 0%
inhibition [8]: 22%

Oc1ccc(-c2cc(/C=C3\CN4CCC3CC4)on2)cc1O
inhibition [1]: 8%
inhibition [2]: 0%
inhibition [3]: 7%
inhibition [4]: 0%
inhibition [6]: 0%
inhibition [9]: 88%
inhibition [8]: 0%

COc1ccc(COc2ccc(-c3cc(/C=C4/CN5CCC4C5)on3)cc2OCc2ccc(OC)cc2)cc1 (configuration not stated)
inhibition [1]: 91%
inhibition [2]: 24%
inhibition [3]: 78%
inhibition [4]: 82%
IC50 [5]: 1230 nM
inhibition [6]: 39%
inhibition [7]: 0%
inhibition [8]: 9%

Cc1cc(/C=C2\CN3CCC2CC3)on1
IC50 [10]: ~10000 nM
IC50 [11]: 12 nM

CC(C)(C)OC(=O)Nc1ccc(-c2cc(/C=C3/CN4CCC3CC4)on2)cc1
inhibition [1]: 95%
inhibition [2]: 16%
inhibition [3]: 67%
inhibition [4]: 87%
IC50 [5]: 806 nM
inhibition [6]: 57%
inhibition [7]: 43%
inhibition [8]: 31%

N#Cc1ccc(-c2cc(/C=C3\CN4CCC3CC4)on2)cc1
inhibition [1]: 22%
inhibition [2]: 6%
inhibition [3]: 32%
inhibition [4]: 31%
inhibition [6]: 2%
IC50 [12]: > 10 nM
inhibition [7]: 83%
inhibition [8]: 9%

COc1ccc(-c2cc(/C=C3\CN4CCC3C4)on2)cc1 (configuration not stated)
inhibition [1]: 34%
inhibition [2]: 7%
inhibition [3]: 24%
inhibition [4]: 2%
inhibition [6]: 0%
inhibition [13]: 55%
inhibition [8]: 0%

CC(C)(C)OC(=O)Nc1ccc(-c2cc(/C=C3\CN4CCC3CC4)on2)cc1
inhibition [1]: 59%
inhibition [2]: 14%
inhibition [3]: 36%
inhibition [4]: 41%
IC50 [5]: > 10 nM
inhibition [6]: 12%
inhibition [7]: 64%
inhibition [8]: 5%

N#Cc1ccc(-c2cc(/C=C3/CN4CCC3CC4)on2)cc1
inhibition [1]: 61%
inhibition [2]: 0%
inhibition [3]: 23%
inhibition [4]: 26%
inhibition [6]: 11%
IC50 [12]: 803 nM
inhibition [7]: 92%
inhibition [8]: 1%

COc1ccc(COc2ccc(-c3cc(/C=C4\CN5CCC4CC5)on3)cc2)cc1
inhibition [1]: 64%
inhibition [2]: 55%
inhibition [3]: 46%
inhibition [4]: 37%
IC50 [5]: 809 nM
inhibition [6]: 77%
inhibition [7]: 0%
inhibition [8]: 31%
